The target in assay [1] is Hypoxia inducible factors; HIF-1-alpha, HIF-2-alpha (Homo sapiens, UniProt Q16665+Q99814). Nature of the assay: Inhibition of hypoxia-induced HIF1 activation in human AGS cells by reporter gene assay. The assay is classed as cell-based.
The test system of another assay is AGS. Nature of the assay: Cytotoxicity against human AGS cells by MTT assay. The assay is classed as functional, cell-based.
A short description of assay [2]: Inhibition of TNF-alpha-induced NF-kappaB activation in human HeLa cells. It counts as cell-based.
The test system of the next assay is HeLa. Nature of the assay: Cytotoxicity against human HeLa cells by MTT assay. The assay is classed as functional, cell-based.

For eight compounds, IC50 results are on record in ChEMBL document CHEMBL1144744, “Hypoxia-inducible factor-1 and nuclear factor-kappaB inhibitory meroterpene analogues of bakuchiol, a constituent of the seeds of Psoralea corylifolia” (Bioorg Med Chem Lett, 2008).

With `C=C[C@@](C)(/C=C/c1ccc(OC(C)(C)[C@@H](O)CC[C@@](C)(C=C)/C=C/c2ccc(O)cc2)cc1)CCC=C(C)C`, the IC50 in assay [1] is above 50 µM; in the assay on AGS, above 50 µM; in assay [2], 12.2 µM; with HeLa, above 50 µM.

In the case of `C=C[C@@](C)(/C=C/c1ccc(OCC)cc1)CCC=C(C)C`, the IC50 is 26.3 µM in assay [1], above 50 µM with AGS, 12.2 µM in assay [2] and above 50 µM with HeLa.

On to `C=C[C@@](C)(/C=C/c1ccc(O)cc1)CCC(O)C(C)(C)O` (some centres not stated), for which the IC50 (in assay [1]; in the assay on AGS; in assay [2]; in the assay with HeLa) was above 50 µM in each case.

Consider `C=C[C@@](C)(/C=C/c1ccc(OC)cc1)CCC=C(C)C`, for which the IC50 in assay [1] is 8.7 µM; in the assay on AGS it was 55.8 µM; in assay [2], 5.7 µM; with HeLa, above 50 µM.

In the case of `C=C[C@@](C)(/C=C/c1ccc(O)cc1)CCC1OC1(C)C` (some centres not stated), the IC50 (in assay [1]; in the assay with AGS; in assay [2]; in the assay on HeLa) was above 50 µM each time.

With `C=C[C@@](C)(/C=C/c1ccc(OC(C)=O)cc1)CCC=C(C)C` [ACETYLBAKUCHIOL], the IC50 in assay [1] is 5.7 µM; in the assay with AGS, 26.8 µM; in assay [2], 5.7 µM; in the assay on HeLa, 18.1 µM.

`CO[C@H]1/C=C\C=C(/C)C(=O)NC2=CC(=O)C(NCCN(C)C)=C(C[C@@H](C)C[C@H](OC)[C@H](O)[C@@H](C)/C=C(\C)[C@@H]1OC(N)=O)C2=O` [ALVESPIMYCIN]: the IC50 in assay [1] stood at 0.0036 µM; in the assay on AGS it was 16 µM; in assay [2], 0.15 µM; with HeLa it was 2.06 µM.

Consider `C=C[C@@](C)(/C=C/c1ccc(O)cc1)CCC=C(C)C` [BAKUCHIOL], for which the IC50 amounted to 6.1 µM in assay [1], 15.3 µM in the assay with AGS, 6.9 µM in assay [2] and 11 µM in the assay with HeLa.
